# Assay results: ChEMBL document CHEMBL1201862, “PubChem BioAssay data set” (2004)
# Activity calls are given as the source filed them.
# Experiments:
# [1] = target: T1, Endoribonuclease toxin MazF (Escherichia coli K-12, UniProt P0AE70); assay: fluorescent RNA oligo signal without MazF, dose response, counter-screen for MazEF activator project, biochemical, fluorescence, single-stranded RNase substrate (AID 588502); type: functional
# T1 sequence (P0AE70 whole entry): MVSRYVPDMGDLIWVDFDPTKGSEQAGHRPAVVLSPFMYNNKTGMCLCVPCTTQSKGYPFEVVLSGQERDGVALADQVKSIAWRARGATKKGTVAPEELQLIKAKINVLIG
# [2] = target: T1, Endoribonuclease toxin MazF; assay: MazF toxin RNase activators, dose response, biochemical, fluorescence, single-stranded RNA substrate, uHTS hits (AID 588481); type: functional
# [3] = target: Ras and Rab interactor 1/Tyrosine-protein kinase ABL1 (Homo sapiens, UniProt P00519+Q13671); type: functional;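 also: biochemical TR-FRET dose-response test measuring inhibition of binding between Rin1 and Abl proteins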
# HeLa = assay: HeLa cell cytotoxicity, dose response, cytotoxicity control for MITF activator project, CellTiter-Glo luminescence, cherry-pick samples (AID 540259); type: functional, cell-based; conditions: Homo sapiens
# [4] = target: T2, Long-chain-fatty-acid--AMP ligase FadD28 (Mycobacterium tuberculosis, UniProt P9WQ59); assay: Fluorescence polarization aasay to screen for inhibitors that compete for the binding of FadD28 to a bisubstrate Measured in Biochemical System Using Plate Reader - 2147-01_Inhibitor_Dose_CherryPick_Activity.; type: functional, Mycobacterium tuberculosis H37Rv
# T2 sequence (P9WQ59 whole entry): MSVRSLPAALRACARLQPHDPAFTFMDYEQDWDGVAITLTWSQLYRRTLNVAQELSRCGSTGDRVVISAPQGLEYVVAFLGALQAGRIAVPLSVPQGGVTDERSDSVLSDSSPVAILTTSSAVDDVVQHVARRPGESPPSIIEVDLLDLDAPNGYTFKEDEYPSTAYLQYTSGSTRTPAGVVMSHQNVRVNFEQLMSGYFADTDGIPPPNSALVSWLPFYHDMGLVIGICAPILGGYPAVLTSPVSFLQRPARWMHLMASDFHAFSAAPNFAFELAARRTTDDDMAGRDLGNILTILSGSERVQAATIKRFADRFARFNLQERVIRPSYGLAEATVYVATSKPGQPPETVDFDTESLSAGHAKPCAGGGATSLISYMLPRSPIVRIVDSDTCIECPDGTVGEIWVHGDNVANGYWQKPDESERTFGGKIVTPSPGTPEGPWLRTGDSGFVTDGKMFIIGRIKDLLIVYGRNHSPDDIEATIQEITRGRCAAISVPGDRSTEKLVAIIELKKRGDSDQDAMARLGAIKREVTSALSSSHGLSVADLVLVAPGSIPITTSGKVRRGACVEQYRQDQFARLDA
# [5] = miR-122 activators in hepatoma reporter cells, dose response, cell-based, Huh7 psiCHECK-miR122, Renilla luciferase, cherry-picked (AID 651956); type: functional;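 also: huh7 hepatoma cells stably carrying a psiCHECK-2 miR-122 sensor plasmid; renilla luciferase signal reporting endogenous miR-122 activity after 48 h compound exposure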
# [6] = NIH-3T3 fibroblast cytotoxicity, dose response, cytotoxicity control, cell-based, fluorescence, Alamar Blue, secondary assay (AID 2327); type: functional;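 also: NIH-3T3 mouse fibroblasts cultured with fluconazole at 8 µg/mL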
# [7] = C. albicans growth with fluconazole, confirmation, fluorescence, retest (AID 2467); type: functional, cell-based
# [8] = target: Heat shock protein HSP 90-alpha (Homo sapiens, UniProt P07900); type: functional, organism-based
# Cytochrome P450 3A4 [9] = target: T3, Cytochrome P450 3A4 (Homo sapiens, UniProt P08684);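 also: CYP3A4 tested as one member of a cytochrome P450 panel screen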
# Cytochrome P450 3A4 [10] = target: T3, Cytochrome P450 3A4; remark: listed apart in the source
# [11] = target: DNA (cytosine-5)-methyltransferase 1 (Homo sapiens, UniProt P26358); assay: DNMT1 methyltransferase inhibitors, confirmation, biochemical, fluorescent molecular beacon (AID 602386); type: functional
# [12] = THP-1 cell cytotoxicity, dose response, cytotoxicity control for Vif-APOBEC3G degradation inhibitor project, THP-1 cells (AID 1117359); type: functional; conditions: Human immunodeficiency virus 1, THP-1
# [13] = target: T4, Carboxy-terminal domain RNA polymerase II polypeptide A small phosphatase 1 (Homo sapiens, UniProt Q9GZU7); assay: inhibitors of CTDSP1, concentration-response testing, biochemical assay, absorbance-based, actives from ultra-high-throughput screening (AID 540297); type: functional
# T4 sequence (Q9GZU7 whole entry): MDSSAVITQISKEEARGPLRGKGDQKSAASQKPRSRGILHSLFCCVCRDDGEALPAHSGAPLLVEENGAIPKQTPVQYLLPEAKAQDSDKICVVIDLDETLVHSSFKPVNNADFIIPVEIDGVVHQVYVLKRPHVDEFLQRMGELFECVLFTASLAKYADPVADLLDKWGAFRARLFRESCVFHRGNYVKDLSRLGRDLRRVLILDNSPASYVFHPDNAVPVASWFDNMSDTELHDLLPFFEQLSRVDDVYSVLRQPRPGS
# T3 sequence (P08684 whole entry): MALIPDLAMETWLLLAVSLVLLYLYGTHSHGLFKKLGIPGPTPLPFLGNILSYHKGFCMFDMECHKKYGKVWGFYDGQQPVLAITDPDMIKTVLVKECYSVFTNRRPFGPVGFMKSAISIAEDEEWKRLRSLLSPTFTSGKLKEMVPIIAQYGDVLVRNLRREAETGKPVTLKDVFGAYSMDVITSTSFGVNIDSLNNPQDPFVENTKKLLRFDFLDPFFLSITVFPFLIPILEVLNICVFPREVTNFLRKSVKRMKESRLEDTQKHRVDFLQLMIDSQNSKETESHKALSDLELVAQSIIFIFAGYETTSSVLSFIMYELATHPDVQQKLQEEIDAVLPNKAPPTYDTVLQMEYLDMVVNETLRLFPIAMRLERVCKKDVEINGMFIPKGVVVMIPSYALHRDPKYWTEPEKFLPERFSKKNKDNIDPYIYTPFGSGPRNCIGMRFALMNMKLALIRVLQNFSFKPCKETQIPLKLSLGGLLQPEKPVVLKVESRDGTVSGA
# Ras and Rab interactor 1/Tyrosine-protein kinase ABL1, sequence (P00519 whole entry): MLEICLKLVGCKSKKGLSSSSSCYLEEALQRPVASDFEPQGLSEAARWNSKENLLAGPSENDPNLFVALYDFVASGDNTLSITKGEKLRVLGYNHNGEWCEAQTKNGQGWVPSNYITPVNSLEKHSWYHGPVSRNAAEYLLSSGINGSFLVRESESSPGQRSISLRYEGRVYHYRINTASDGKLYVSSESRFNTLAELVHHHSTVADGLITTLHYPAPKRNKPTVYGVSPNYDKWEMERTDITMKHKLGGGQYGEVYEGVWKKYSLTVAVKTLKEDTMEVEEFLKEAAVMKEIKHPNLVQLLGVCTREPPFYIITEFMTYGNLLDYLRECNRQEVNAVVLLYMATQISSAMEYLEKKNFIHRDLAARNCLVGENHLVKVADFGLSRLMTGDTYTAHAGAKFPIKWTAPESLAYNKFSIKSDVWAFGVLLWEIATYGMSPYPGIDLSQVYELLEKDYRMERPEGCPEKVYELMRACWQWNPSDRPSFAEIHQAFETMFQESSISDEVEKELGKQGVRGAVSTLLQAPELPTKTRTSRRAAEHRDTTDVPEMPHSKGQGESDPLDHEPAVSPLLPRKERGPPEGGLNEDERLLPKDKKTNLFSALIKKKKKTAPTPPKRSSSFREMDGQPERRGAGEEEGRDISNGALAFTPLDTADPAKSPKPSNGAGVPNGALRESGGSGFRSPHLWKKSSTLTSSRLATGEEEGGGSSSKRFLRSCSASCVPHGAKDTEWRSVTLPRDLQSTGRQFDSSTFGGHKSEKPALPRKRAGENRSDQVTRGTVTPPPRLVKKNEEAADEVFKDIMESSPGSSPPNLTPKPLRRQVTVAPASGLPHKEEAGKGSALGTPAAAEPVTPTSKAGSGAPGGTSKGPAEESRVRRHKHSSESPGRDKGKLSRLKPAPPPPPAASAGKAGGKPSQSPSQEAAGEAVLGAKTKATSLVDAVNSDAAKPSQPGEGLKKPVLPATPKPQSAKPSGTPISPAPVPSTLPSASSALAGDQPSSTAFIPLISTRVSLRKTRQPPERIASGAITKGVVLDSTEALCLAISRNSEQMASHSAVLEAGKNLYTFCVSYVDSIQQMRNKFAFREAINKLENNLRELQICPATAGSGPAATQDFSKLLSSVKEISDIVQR
# Ras and Rab interactor 1/Tyrosine-protein kinase ABL1, sequence (Q13671 whole entry): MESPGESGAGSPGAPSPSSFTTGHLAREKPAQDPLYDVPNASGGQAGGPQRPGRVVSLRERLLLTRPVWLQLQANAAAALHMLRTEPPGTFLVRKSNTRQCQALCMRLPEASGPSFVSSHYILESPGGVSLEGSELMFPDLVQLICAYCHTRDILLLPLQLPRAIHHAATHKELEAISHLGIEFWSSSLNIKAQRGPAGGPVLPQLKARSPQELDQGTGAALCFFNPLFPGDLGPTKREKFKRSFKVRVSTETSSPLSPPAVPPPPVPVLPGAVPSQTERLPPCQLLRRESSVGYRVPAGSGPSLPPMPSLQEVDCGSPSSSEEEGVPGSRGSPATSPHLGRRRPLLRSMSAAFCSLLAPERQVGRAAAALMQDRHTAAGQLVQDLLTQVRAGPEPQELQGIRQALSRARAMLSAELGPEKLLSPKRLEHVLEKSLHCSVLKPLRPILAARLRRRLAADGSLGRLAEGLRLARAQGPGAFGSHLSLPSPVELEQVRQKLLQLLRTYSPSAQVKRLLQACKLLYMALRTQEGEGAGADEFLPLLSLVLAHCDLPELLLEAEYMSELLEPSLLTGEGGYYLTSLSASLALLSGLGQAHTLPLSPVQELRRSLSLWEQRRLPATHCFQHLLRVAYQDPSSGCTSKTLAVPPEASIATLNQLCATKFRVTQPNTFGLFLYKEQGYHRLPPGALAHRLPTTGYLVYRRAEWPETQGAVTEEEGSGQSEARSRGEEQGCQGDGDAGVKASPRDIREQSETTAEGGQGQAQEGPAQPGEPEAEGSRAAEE
# DNA (cytosine-5)-methyltransferase 1, sequence (P26358 whole entry): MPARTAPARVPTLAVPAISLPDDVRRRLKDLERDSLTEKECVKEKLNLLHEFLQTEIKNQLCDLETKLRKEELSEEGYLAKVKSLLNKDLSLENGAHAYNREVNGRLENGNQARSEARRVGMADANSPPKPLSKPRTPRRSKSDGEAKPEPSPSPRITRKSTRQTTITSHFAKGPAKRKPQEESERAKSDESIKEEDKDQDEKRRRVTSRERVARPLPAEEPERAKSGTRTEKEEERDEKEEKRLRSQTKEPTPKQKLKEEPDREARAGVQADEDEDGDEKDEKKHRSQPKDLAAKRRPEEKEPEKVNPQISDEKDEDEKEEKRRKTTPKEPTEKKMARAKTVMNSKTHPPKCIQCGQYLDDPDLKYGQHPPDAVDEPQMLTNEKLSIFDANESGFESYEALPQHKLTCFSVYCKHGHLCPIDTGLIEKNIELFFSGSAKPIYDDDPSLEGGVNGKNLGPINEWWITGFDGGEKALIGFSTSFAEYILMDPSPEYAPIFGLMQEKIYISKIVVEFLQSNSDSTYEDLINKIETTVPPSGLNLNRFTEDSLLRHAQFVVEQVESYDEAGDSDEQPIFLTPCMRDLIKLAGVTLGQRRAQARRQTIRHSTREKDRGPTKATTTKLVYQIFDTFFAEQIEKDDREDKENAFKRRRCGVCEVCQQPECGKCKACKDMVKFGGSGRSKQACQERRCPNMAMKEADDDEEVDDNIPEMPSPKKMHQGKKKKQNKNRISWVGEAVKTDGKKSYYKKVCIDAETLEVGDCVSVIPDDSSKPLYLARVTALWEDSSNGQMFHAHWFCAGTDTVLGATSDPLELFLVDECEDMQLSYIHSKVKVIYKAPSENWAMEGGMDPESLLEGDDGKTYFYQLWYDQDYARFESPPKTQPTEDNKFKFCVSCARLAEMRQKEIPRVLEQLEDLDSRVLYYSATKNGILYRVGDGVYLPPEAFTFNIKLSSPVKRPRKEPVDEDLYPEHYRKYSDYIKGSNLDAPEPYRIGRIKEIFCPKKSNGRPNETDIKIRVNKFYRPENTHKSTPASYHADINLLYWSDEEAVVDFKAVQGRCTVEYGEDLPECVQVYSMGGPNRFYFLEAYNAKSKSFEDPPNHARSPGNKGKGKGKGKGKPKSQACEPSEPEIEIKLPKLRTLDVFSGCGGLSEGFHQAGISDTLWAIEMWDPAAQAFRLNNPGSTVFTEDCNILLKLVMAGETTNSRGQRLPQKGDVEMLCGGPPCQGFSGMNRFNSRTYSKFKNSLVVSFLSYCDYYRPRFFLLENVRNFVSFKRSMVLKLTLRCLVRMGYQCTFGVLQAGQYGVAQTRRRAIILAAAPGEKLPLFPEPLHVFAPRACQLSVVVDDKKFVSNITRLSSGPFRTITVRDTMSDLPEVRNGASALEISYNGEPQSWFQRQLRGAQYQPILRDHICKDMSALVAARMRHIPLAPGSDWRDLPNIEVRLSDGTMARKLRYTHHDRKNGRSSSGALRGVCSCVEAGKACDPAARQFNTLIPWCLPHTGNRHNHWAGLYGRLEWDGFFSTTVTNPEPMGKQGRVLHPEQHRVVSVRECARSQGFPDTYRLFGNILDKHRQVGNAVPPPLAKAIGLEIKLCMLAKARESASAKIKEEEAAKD
smiles,measurement,setting,value
N#C/C(=C\C1=C(N2CCOCC2)C(=C/c2cccc([N+](=O)[O-])c2)/CC1)C(=O)Nc1ccccc1F,EC50,[1],> 99 µM (inactive)
same,EC50,[2],> 99 µM (inactive)
O=C(Cc1ccc(NC(=O)C2CCN(C(=O)C3CCCC3)CC2)cc1)Nc1ccc(C(=O)N2CCOCC2)cc1,IC50,[3],1.54 µM (active)
COc1ccc(NC(=O)CN(C)C(=O)CNC(=O)c2sc3ccccc3c2Cl)cc1,AC50,HeLa,41.6 µM (active)
O=C(O)c1[nH]c2ccccc2c1C(c1c(F)cccc1Cl)c1c(C(=O)O)[nH]c2ccccc12,AC50,[4],69.9 µM (active)
COc1cccc(-c2csc(N3CCN(CC(=O)Nc4ccc5c(c4)OCO5)CC3)n2)c1,AC50,[5],17.2 µM (active)
O=C(N/N=C/c1ccc(O)c([N+](=O)[O-])c1)C1CC1(c1ccccc1)c1ccccc1 (centres undefined),EC50,[6],> 160 µM (inactive)
same,EC50,[7],1.04 µM (active)
same,AC50,[4],22.2 µM (active)
COc1ccc2c(c1)OC[C@H]1[C@H]2N2C(=O)c3cc(Cl)ccc3NC(=O)[C@@]2(C)[C@H]1c1ccccc1,AC50,[8],0.976 µM (active)
CCOC(=O)c1cc2cc(OCc3ccccc3)ccc2nc1C,AC50,[8],3.93 µM (active)
Nc1ccccc1C#Cc1ccccc1,AC50,Cytochrome P450 3A4 [9],15.8 µM (inconclusive)
same,AC50,HeLa,> 350 µM (inactive)
same,AC50,Cytochrome P450 3A4 [10],15.8 µM (inconclusive)
CC1CCCC(C)N1C(=O)c1cc(-c2ccc3c(c2)OCO3)on1 (centres undefined),AC50,HeLa,> 350 µM (inactive)
COc1ccc(S(=O)(=O)N2CCN(C(=O)c3cc4c(s3)CCC4)CC2)cc1,IC50,[11],11.3 µM (active)
same,CC50,[12],> 40 µM (active)
same,IC50,[13],1.61 µM (active)
COc1ccc(C2CC(=O)Oc3c(C(C)C)ccc(C)c32)cc1 (centres undefined),AC50,[4],> 100 µM (inactive)
